Results on two compounds are retold here after patent US20050214385A1, “Chromium/biotin treatment of dyslipidemia and diet-induced post prandial hyperglycemia” (priority 2001, published 2005).

Several values for one entry are separate records, joined by “and”; a condition that tells them apart may be missing. Identical values can stand only once. Like-named read-outs stand apart in the source and are kept apart here.

For series [1] the following is noted: rats, oral CrCl3 with NSAID; cited from earlier work.
Series [2] concerns streptozotocin-diabetic rats; Otsuka Long-Evans Tokushima Fatty rats. The note with it: high-dose oral or parenteral, cited from earlier work.
Series [3] has as its system JCR rat. The series can be described thus: Lipid levels in JCR rats (chromium picolinate + biotin animal study). Type of series: in vivo. Set-up: Cholesterol / HDL-ch: unit not given here. Here is the method:
In order to test the effects of chromium and biotin, alone and in combination, on insulin sensitivity, a rodent model of “Syndrome X” was employed. Specifically, the JCR rat was utilized as it is a well-established model of obesity and insulin resistance. […] After a baseline phase where accurate weights, body composition, and food intake were assessed, the animals were randomized to either control, CrPic alone, biotin alone, or CrPic/Biotin (See FIG. 5). Animals were weighed weekly and nutrients were given via daily water feeding at a specified dose/kg body weight. A 12-week period of daily treatment of animals was accomplished. […] Specifically, CrPic versus control solutions were given in hyperinsulinemic, insulin-resistant, obese JCR rats. The study was initiated on animals at approximately 4 months of age, and animals were treated specifically for three months. […] 9). […] The improvement in insulin sensitivity was associated with a reduction in total. cholesterol levels compared to lean animals (See, e.g., Table 2, and FIGS. 10 & 11). The effect of the combination of chromium and biotin on lipid levels in the animal study is detailed in Table 2. Specifically, the effect of chromium and biotin on cholesterol levels, high density lipid cholesterol (HDL-ch) levels, and triglyceride levels are recorded in Table 2.

Series [4] concerns human skeletal muscle culture (HSMC). As to the kind of experiment: Glucose uptake in human skeletal muscle culture. In kind it is cell-based. As to conditions: FIG. 2.
The conditions of series [5]: oral biotin intakes of up to 200 mg daily; cited from earlier work.
The subject of series [6] is Type I and type 2 diabetics. As to conditions: cited from earlier work.
Series [7] concerns JCR rat. As to the kind of experiment: Intraperitoneal glucose tolerance test / glucose disposal in JCR rats. In kind it is in vivo. As to conditions: for Glucose Disposal: individual rat, 12 weeks daily treatment via water. Here is the method:
In order to test the effects of chromium and biotin, alone and in combination, on insulin sensitivity, a rodent model of “Syndrome X” was employed. Specifically, the JCR rat was utilized as it is a well-established model of obesity and insulin resistance.
After a baseline phase where accurate weights, body composition, and food intake were assessed, the animals were randomized to either control, CrPic alone, biotin alone, or CrPic/Biotin (See FIG. 5). Animals were weighed weekly and nutrients were given via daily water feeding at a specified dose/kg body weight. A 12-week period of daily treatment of animals was accomplished.
At specified time points during the study, glucose and insulin assessments were made. Specific assessments of carbohydrate metabolism were determined using an intraperitoneal glucose tolerance test and an insulin tolerance test. Animals were studied at 6 and 12 weeks with randomization. The specific metabolic testing was as follows:
Following baseline glucose and insulin measurements, 1.5 mg D50W per gram of body weight were given intraperitoneally. Tailsticks were initiated at 30, 60, 90, and 120 minutes following administration of glucose. The areas under curve for insulin and glucose were assessed. Eight animals in each group at 12 weeks were studied. Table 1 details the amount of glucose disposal for animals treated with CrPic and/or biotin at various dosages. Note, “L” represents the lean control; “O-contr” are the obese control rats; “LB” connotes low biotin treatments; “HB” represents high biotin treatments; “LC” and “HC” represent low and high doses of chromium, respectively. FIG. 6 is a graphic representation of the results of the IPGTT studies. […]

A further series relates to diabetic KK mice. The note with it: high-dose oral or parenteral; cited from earlier work.
The test system of series [8] is glycogen synthetase (GS) mRNA. The series can be described thus: Glycogen synthetase (GS) mRNA expression in HSMC. Type of series: cell-based, human. The note with it: CrPic 10 ng/ml, biotin 10 pm, FIG. 4B. Here is the method:
To evaluate the cellular mechanism by […] biotin enhance glycogen synthesis, glycogen synthetase (“GS”) mRNA and glycogen synthesis were assessed. HSMC was incubated with CrPic at 10 ng/ml, biotin at 10 pm, and both CrPic and biotin. […] When evaluating GS mRNA levels, chromium increased gene expression of GS by 26%, biotin by 15%, and the combination by 33%. […] RNA Preparation: Total RNA from the skeletal muscle biopsy was isolated using guanium […], phenol-chloroform extraction, and alcohol precipitation. RNA sample was quantified by spectrophotometer. The absorption ratio (260:280 nm) was between 1.8 to 2.0 for all preparations and the integrity of the RNA was verified on agarose gel colored with ethidium bromide. For RT-PCR, fresh isolated total RNA was used. GS mRNA Level Analysis: GS mRNA levels were analyzed using one-step RT-PCR kits (Clontech Laboratories, Inc., Palo Alto, Calif.). GS first-strand CDNA synthesis was performed from 1 μh of total RNA with 1×[…] plus enzyme mix in 40 mM Tricine, 20 mM Kcl, 3 mM MgCl2, 3.75 ug/ml BSA, 0.2 mM deoxynucleoside triphosphates, 400 pmol of oligo(dt) primer, and 200 pm GS primers (Sense [NT], antisense [NT]) in a final volume of 50 μl. The reaction mixtures were subjected to incubations for 60 min. at 50° C. in the Eppendorf Master gradient cycler (Westbury, N.Y.). […] The band densities were evaluated (Alpha Imager 2000, San Leandro, Calif.). […]

`CC(=O)Oc1ccccc1C(=O)O` [aspirin]: the Chromium absorption result in series [1] is given as “facilitated”.
Take `O=C(O)CCCC[C@@H]1SC[C@@H]2NC(=O)N[C@@H]21` [biotin]: the oral glucose tolerance result (in series [2] (pre-diabetic Otsuka Long-Evans Tokushima Fatty rats); in [2] (rats made diabetic with streptozotocin); in the series on diabetic KK mice) was “improve oral glucose tolerance” each time. The Cholesterol in the series on JCR rat [3] (Month 0, listed as High Biotin) is recorded as 106; in the series on JCR rat [3] (Month 0, listed as Low Biotin) it was 111; with JCR rat [3] (Month 1, listed as High Biotin), 111; with JCR rat [3] (Month 1, listed as Low Biotin), 117; in the series with JCR rat [3] (Month 2, listed as High Biotin), 130; with JCR rat [3] (Month 2, listed as Low Biotin), 122. The Cholesterol in the series on JCR rat [3] (Month 3, listed as High Biotin) is 144; with JCR rat [3] (Month 3, listed as Low Biotin) it was 118. The HDL-ch in the series with JCR rat [3] (Month 0, listed as High Biotin) turned out to be 43.6; with JCR rat [3] (Month 0, listed as Low Biotin) it was 47.8; in the series with JCR rat [3] (Month 1, listed as High Biotin), 42; in the series with JCR rat [3] (Month 1, listed as Low Biotin), 46.5; with JCR rat [3] (Month 2, listed as High Biotin) it was 46.8; in the series on JCR rat [3] (Month 2, listed as Low Biotin) it was 45.8. Besides, the HDL-ch is 46.9 in the series with JCR rat [3] (Month 3, listed as High Biotin) and 47.3 in the series on JCR rat [3] (Month 3, listed as Low Biotin). Further, the Triglyceride turned out to be 289 mg/dL in the series with JCR rat [3] (Month 0, listed as High Biotin); 317 mg/dL with JCR rat [3] (Month 0, listed as Low Biotin); 292 mg/dL in the series with JCR rat [3] (Month 1, listed as High Biotin); 331 mg/dL in the series with JCR rat [3] (Month 1, listed as Low Biotin); 294 mg/dL in the series with JCR rat [3] (Month 2, listed as High Biotin); 272 mg/dL in the series on JCR rat [3] (Month 2, listed as Low Biotin). For the same compound, the Triglyceride turned out to be 301 mg/dL in the series with JCR rat [3] (Month 3, listed as High Biotin) and 229 mg/dL in the series on JCR rat [3] (Month 3, listed as Low Biotin). The glucose uptake result in series [4] was “chromium alone enhances glucose uptake in contrast to biotin alone”. For the same compound, the “side effects or toxicities” value in series [5] is “no side effects or toxicities”. Besides, the “fasting plasma glucose levels” value in [6] (Type I diabetics, insulin temporarily discontinued, 16 mg daily oral) was “lowered fasting plasma glucose levels”. The “pancreatic beta cell function” value in [6] (poorly-controlled type 2 diabetics, 3 mg three times per day) is given as “improved”. In addition, the “Glucose Disposal” value with JCR rat [7] (listed as HB) was 1.92 mg/dL/min and 2.329 mg/dL/min and 1.879 mg/dL/min and 1.772 mg/dL/min and 1.993 mg/dL/min; in the series with JCR rat [7] (listed as LB), 2.21 mg/dL/min and 2.392 mg/dL/min and 1.876 mg/dL/min and 1.768 mg/dL/min and 1.875 mg/dL/min. The “Glucose Disposal, value per treatment group” value with JCR rat [7] (mean per treatment, 12 weeks) was found to be 2.0615 mg/dL/min. Further, the “increase of gene expression of GS (GS mRNA levels)” value in series [8] is 15%.
